Source: PubChem BioAssay (NCI)
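48-hour exposure; five concentrations; linearly interpolated endpoints. TGI is the concentration that stops growth completely.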

Experiments:
Test in all cases: NCI tumour cell line growth inhibition, 48 h
A498 renal = system: A498 renal
ACHN renal = system: ACHN renal
CCRF-CEM leukemia = system: CCRF-CEM leukemia
COLO 205 colon = system: COLO 205 colon
HL-60(TB) leukemia = system: HL-60(TB) leukemia
HOP-92 NSCLC = system: HOP-92 NSCLC
HS 578T breast = system: HS 578T breast
HT29 colon = system: HT29 colon
K-562 leukemia = system: K-562 leukemia
KM12 colon = system: KM12 colon
MALME-3M melanoma = system: MALME-3M melanoma
MCF7 breast = system: MCF7 breast
MOLT-4 leukemia = system: MOLT-4 leukemia
PC-3 prostate = system: PC-3 prostate
RPMI-8226 leukemia = system: RPMI-8226 leukemia
SF-268 CNS = system: SF-268 CNS
SNB-75 CNS = system: SNB-75 CNS
U251 CNS = system: U251 CNS
UACC-62 melanoma = system: UACC-62 melanoma
UO-31 renal = system: UO-31 renal

Structure (SMILES)	TGI (A498 renal) [µM]	TGI (ACHN renal) [µM]	TGI (CCRF-CEM leukemia) [µM]	TGI (COLO 205 colon) [µM]	TGI (HL-60(TB) leukemia) [µM]	TGI (HOP-92 NSCLC) [µM]	TGI (HS 578T breast) [µM]	TGI (HT29 colon) [µM]	TGI (K-562 leukemia) [µM]	TGI (KM12 colon) [µM]	TGI (MALME-3M melanoma) [µM]	TGI (MCF7 breast) [µM]	TGI (MOLT-4 leukemia) [µM]	TGI (PC-3 prostate) [µM]	TGI (RPMI-8226 leukemia) [µM]	TGI (SF-268 CNS) [µM]	TGI (SNB-75 CNS) [µM]	TGI (U251 CNS) [µM]	TGI (UACC-62 melanoma) [µM]	TGI (UO-31 renal) [µM]
CCCCCCCC(CC(=O)NC(CO)C(=O)NC(CO)CC(C)C)OC(=O)CC(CCCCCCC)OC(=O)CC(CCCCCCC)OC1OC(C)C(O)C(OC2OC(C)C(O)C(O)C2O)C1O (stereo not given)	35	25.5	15	22.8	10.5	24.8	22.7	21.8	25.7	26.3	24	> 52.3	28.2	25.3	8.96	23.2	24.9	24.7	27.9	30.5
COc1ccc2c(c1)-c1nc(=O)n(CCCN(C)C)c3ccc([N+](=O)[O-])c(c13)N2	31	15	3.87	18.4	4.39	8.53	4.99	12.2	0.235	4.02	3.28	18.2	0.841	20.9	0.694	17.8	8.51	9.03	25.2	4.73
Cc1cc(C)c(S(=O)(=O)N(CCCN)OCCON(CCCN)S(=O)(=O)c2c(C)cc(C)cc2C)c(C)c1	53.9	66.1	> 24.9	> 100	> 21.9	> 21.6	30.3	40.4	> 100	4.49	3.8	> 100	> 100	4.02	6.33	5.37	12.6	> 100	21.2	58.7
O=C(c1ccccc1)C(Nc1ccc2ccccc2c1)c1ccccc1 (stereo not given)	69.6	> 100	51.2	33.7	36.4	> 100	> 100	> 100	> 87.6	> 81.5	> 94.8	> 100	> 75.6	98.7	33.7	> 100	> 71.9	> 100	> 100	> 100
CCCCCCCCCCCCCCCC(=O)Nc1ccn(C2CCC(COP(=O)(O)OCC3OC(n4cc(F)c(=O)[nH]c4=O)CC3OC(C)=O)O2)c(=O)n1 (stereo not given)	> 100	> 100	19.7	28.5	27.9	66.3	> 100	32.4	> 38.2	34.8	53.3	44.1	30.4	56.8	52.9	> 82.8	> 67.1	36.3	61.6	28.9
COc1ccccc1N1C(=O)CSC1c1cc(OC)c(OC)c(OC)c1 (stereo not given)	> 100	> 100	76.6	> 100	97.7	> 100	> 100	> 100	> 100	> 100	> 100	> 100	> 100	> 100	> 100	> 100	> 100	> 100	> 66.1	> 100
CC1(C)SCc2nc3ccccc3n21	> 100	> 100	> 100	> 100	> 100	> 100	> 100	> 100	> 100	> 100	> 100	> 100	> 100	> 100	> 100	> 100	3.56	> 100	> 100	> 100
O=c1oc2ccc3ccccc3c2cc1-c1cn2c(n1)sc1ccccc12	> 100	> 100	> 100	> 100	> 100	> 100	> 100	> 100	> 100	> 100	> 100	> 100	14	> 100	> 100	> 100	> 100	> 100	> 100	> 100
Nc1nc(Br)nc2ncn(C3CC(O)C(CO)O3)c12 (stereo not given)	> 100	> 100	> 100	> 100	9.35	> 100	> 100	> 100	> 100	> 100	> 100	> 100	0.202	> 100	> 100	> 100	> 100	> 100	> 100	> 100
OCC1OC(n2cnc3c(SCc4ccccc4)ncnc32)C(O)C1O (stereo not given)	> 31.4	> 100	3.55	> 94.9	8.52	> 79.9	> 61.4	> 100	> 100	> 100	> 100	> 100	> 39.8	> 100	> 100	> 100	> 100	> 100	> 100	> 100
O=C(NCCc1ccccc1)c1cc(/C=C/c2cc(O)ccc2O)ccc1O	13.6	5.59	> 40.3	17.6	9.65	4.35	> 40.4	> 50	7.49	24.6	5.07	9.42	7.5	11.4	7.21	10.2	13.7	5.28	5.03	2.86
